Earlier results on one compound are cited in patent US20100172957A1, “EFLUCIMIBE MEDICAMENTS FOR PREVENTING/TREATING A DISEASE DUE TO SEBACEOUS GLAND DYSFUNCTION IN HUMANS OR ANIMALS” (GALDERMA RESEARCH & DEVELOPMENT, priority 2007, published 2010).

The subject of the series is sebum production. The conditions noted are these: current treatment, background statement.

With `CC1=C(/C=C/C(C)=C/C=C/C(C)=C\C(=O)O)C(C)(C)CCC1` [isotretinoin], the “decrease of sebum production” value is recorded as ~90%.
